Experimental data from PubChem BioAssay (NCI).
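All cell lines were grown in 96-well plates and treated with compound for 48 hours. Definition used: TGI = concentration required for complete inhibition of growth.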

Columns and labels:
Experiment in all cases: inhibition of tumour cell growth, NCI panel, 48 h
DMS 273 small cell lung = system: DMS 273 small cell lung
KM20L2 colon = system: KM20L2 colon
LXFL 529 NSCLC = system: LXFL 529 NSCLC

Measured: TGI

Cc1ccccc1NC(=O)C(=O)C(C1OC(=O)c2ccccc21)[N+](=O)[O-] (stereo not drawn)
> 100 µM: all assays above
